Data reported in US20240424051A1, “COMPOSITION FOR TREATING […] OS[…] MECHANISM PROMOTING FORMATION OF MUSCLE FIBERS OR INHIBITING OSTEOCLASTOGENESIS, […]-L-PHENYLALANYL-L-PROLINE DIPEPTIDES” (CELLBION CO., LTD, priority 2021, published 2024).

Columns and labels:
myoblasts = assay: Differentiation of myoblasts and LADD staining (muscle fiber formation experiment); type: cell-based; conditions: mouse myoblasts, LADD staining, compared to vehicle, FIG. 1
Source text: Muscle growth is due to the formation of muscle fibers according to the binding between individual myoblasts. Therefore, the improvement of muscle growth can be estimated through the degree of muscle fiber formation in the environment that induced the binding of myoblasts. Accordingly, myoblasts were isolated from the muscle tissue of a subject and cultured, and whether muscle fibers were formed using the isolated myoblasts was observed.
The formation of muscle fibers can be evaluated by measuring the number of myoblasts that form muscle fibers and the thickness of the formed muscle fibers. To this end, a high-magnification optical microscope was used to identify the nucleus in the muscle fiber through muscle fiber staining. The thickness of the muscle fiber was also measured.
The muscle tissue was minced with a scalpel for 5 minutes. The minced muscle solution was incubated at 37° C. for 60 minutes and then centrifuged at 1500 rpm for 5 minutes. The obtained cells were suspended in Ham's F-10 medium containing 20% heat-inactivated horse serum and 50 units/ml of penicillin in the presence of basic FGF (2.5 ng/ml), and then plated on a cell culture dish for 1 hour without gelatin coating. After 1 hour, the suspended cells were transferred to a secondary cell culture dish without gelatin coating and cultured for 1 hour. […]

muscle mass of mice = assay: Muscle collection and weighing after oral gavage of cFP; type: in vivo, mouse; conditions: male C57BL/6J mice, oral gavage every 24 hours, compared to the control group, FIG. 3
Procedure: According to an embodiment of the present invention, the increase in muscle weight and bone mass by oral administration of cyclo-L-phenylalanyl-L-proline (cFP) was measured. Muscle weight was measured by separating the muscles of the mouse according to anatomical muscle classification. In addition, trabecular bone analysis on the femur of the mouse was performed using high-resolution micro-CT (SMX-90CT system). Based on the growth plate of the femur, the lower part of the 1 mm was the starting point of the analysis, and the analysis was conducted from the starting point to 1.5 mm below the bone. Each indicator means as follows. bone volume/total bone volume (BV/TV, %), bone surface/trabecular bone volume (BS/BV, 1/mm), trabecular thickness (Tb. Th, mm), trabecular number (Tb.N, 1/mm), trabecular separation (Tb. Sp, mm).
Animal studies were conducted in accordance with the guidelines for animal research. All experimental procedures were approved by the Animal Care and Use Committee of Seoul National University Animal Hospital. Male C57BL/6J mice at 4 or 6 weeks of age were purchased from Orient Bio Inc. (Seongnam, Korea) and housed in a specific pathogen-free (SPF) animal facility with controlled temperature (22° C.), humidity (55%), and a 12-hour light-dark cycle. All animals were provided with a free feeding and drinking system. […]

[1] = test system: trabecular bone of mouse femur; assay: Micro-CT analysis of trabecular bone of femur after free drinking of cFP; type: in vivo; conditions: cFP in drinking water (free drinking), FIG. 4

## O=C1NC(Cc2ccccc2)C(=O)N2CCCC12 [cFP, cyclo-L-phenylalanyl-L-proline]
myoblasts
  fusion of myoblasts (muscle fiber formation; diameter of myotube and number of nuclei of myotube): promoted the fusion of myoblasts
Muscle mass of mice
  muscle mass of the mice: increased
[1]
  BV/TV (bone volume/total bone volume): significantly high
  Tb. N (trabecular number): significantly high
  Tb. Th (trabecular thickness): significantly high
